The text below walks through data of article PMC5066289, “Pharmacokinetics of anidulafungin during venovenous extracorporeal membrane oxygenation” (Critical Care, 2016).

Entries after “also recorded” stand apart in the source; their conditions may differ. Numbered stars: 1 amine (or outer) side, 2 acyl side, 3 side chain; on linkers, the order of the positions; unused ones are H or OH. Bridge positions count the residues as written; N and C are the ends. Square brackets hold non-standard residues; d marks the D form. Peptide text beside a SMILES is read from it. * marks the point of attachment. pTerphenylCO(4''-OnC5H11) = CCCCCOc1ccc(-c2ccc(-c3ccc(C(=O)*)cc3)cc2)cc1; Orn(4R-OH,5R-OH) = O=C([C@H](C[C@@H](O)[C@@H](O)N[*:3])N[*:1])[*:2]; hTyr(3S-OH,4S-OH) = N[C@H](C(=O)O)[C@H](O)[C@@H](O)c1ccc(O)cc1; Pro(3S-OH,4S-Me) = C[C@H]1CN[C@H](C(=O)O)[C@H]1O; Hyp = O=C(O)[C@@H]1C[C@@H](O)CN1

Series [1] in a line: Tolerability of anidulafungin in the patient on ECMO. Type of series: in vivo, human. The settings on record: single critically ill patient on venovenous ECMO; usual doses. From the text:
(§1) A patient was admitted to the ICU with septic shock secondary to peritonitis. The anti-infective treatment was based on surgical source control and broad spectrum antimicrobial therapy, including anidulafungin at usual doses. The patient developed severe ARDS. ECMO with Novalung iLA Activve™ was initiated, maintaining ultraprotective ventilation. Femoral (23 F) and jugular (19 F) cannulas (Novalung™, Germany) were inserted with 4.5 L/min blood flow and 4 L/min gas flow. Urine samples and pre-filter and post-filter blood samples were collected before starting the eight-dose anidulafungin infusion and 0.5, 1, 1.5, 2, 4, 6, 8, and 24 h after the infusion ended.

The nature of series [2]: Non-compartmental pharmacokinetics of anidulafungin in a critically ill patient on venovenous ECMO (plasma and urine, HPLC). The class given is in vivo, human.
Description: Echinocandins are currently considered the first-line treatment for invasive candidiasis (IC) in the intensive care unit (ICU). However, extracorporeal membrane oxygenation (ECMO), a rescue therapy used in patients with severe acute respiratory distress syndrome (ARDS), could alter the pharmacokinetics of certain drugs. We prescribed anidulafungin for suspected IC in a patient with severe ARDS on ECMO and measured the plasma concentrations of the drug using high-performance liquid chromatography (HPLC).
as §1
A non-compartmental pharmacokinetic analysis was performed using Abbottbase Pharmacokinetic Systems™ (Abbott Laboratories, Illinois, USA). The maximum and trough plasma concentrations (Cmax and Cmin, respectively) were estimated directly from concentration-time data. The area under the plasma concentration-time curve over the 24-h dosing interval (AUC0–24) was estimated using the linear trapezoidal rule for both pre-filter and post-filter data. Clearance (CL) was estimated as dose/AUC0–24. The apparent volume of distribution at steady state (Vss) was estimated as the product of CL and mean residence time (MRT).

Regarding `CCCCCOc1ccc(-c2ccc(-c3ccc(C(=O)N[C@H]4C[C@@H](O)[C@@H](O)NC(=O)[C@@H]5[C@@H](O)[C@@H](C)CN5C(=O)[C@H]([C@@H](C)O)NC(=O)[C@H]([C@H](O)[C@@H](O)c5ccc(O)cc5)NC(=O)[C@@H]5C[C@@H](O)CN5C(=O)[C@H]([C@@H](C)O)NC4=O)cc3)cc2)cc1` [anidulafungin] ({pTerphenylCO(4''-OnC5H11)}-[Orn(4R-OH,5R-OH)]T[Hyp][hTyr(3S-OH,4S-OH)]T[Pro(3S-OH,4S-Me)]; lactam 1-C), the “Tolerability / adverse effects” value in series [1] is “well tolerated without relevant adverse effects”. Moreover, the “Clearance (CL)” value in series [2] (single patient on venovenous ECMO, non-compartmental, dose/AUC0-24) worked out at 0.933 L/h. The “Apparent volume of distribution at steady state (Vss)” value in series [2] (single patient on venovenous ECMO, non-compartmental, product of CL and MRT) is reported as 18.9 L. Further, the Urine anidulafungin concentrations entry in series [2] (single patient on venovenous ECMO, urine samples over 24 h, HPLC, limit of detection 0.05 mg/L) is “negligible; also recorded: very low and close to the limit of detection”. Further, in series [2] (single patient on venovenous ECMO, usual doses, eighth dose, plasma, HPLC, estimated directly from concentration-time data), the “Trough plasma concentration (Cmin)” value is 2190 ng/mL. Moreover, in series [2] (single patient with severe ARDS on venovenous ECMO, anidulafungin infusion at usual doses, sampled around the eighth dose, plasma, HPLC, estimated directly from concentration-time data), the “Maximum plasma concentration (Cmax)” value was 13500 ng/mL.
